Measurements taken from patent publication US10912743B2, “Compositions for treating inflammation and methods of treating the same” (Novan, Inc., priority 2016, dated 2021).
Marks after values point to notes of the source that are not given here.

Key:
Th17/IL-17 pathway = details: skin biopsies stimulated with cytokine cocktail 48 hrs; cited from earlier work
[1] = tested on: oxazolone-induced ear swelling; test: Oxazolone-induced ear swelling assay in BALB/c mice; type: in vivo
Procedure: Groups of 5 BALB/c male mice weighing 22±2 g were used. The animals were sensitized by application of oxazolone (100 μL, 1.5% in acetone) to their preshaved abdominal surface. Seven days later, test substances (20 mg/ear) and vehicle (20 μL/ear) were applied topically to the anterior and posterior surfaces of the right ear 30 min before and 15 min after oxazolone (1%, 20 μL/ear) challenge. Ear swelling was measured with a Dyer model micrometer gauge at 24 hours after oxazolone challenge as an index of inflammation. Ear edema was calculated by subtracting the thickness of the left ear (normal control) from the right ear (treated ear). Percent inhibition was calculated according to the formula: (Ic −It)/Ic×100, where Ic and It refers to increase of ear thickness (mm) in control and treated mice, respectively. One-way ANOVA and Dunnett's test were used to determine statistical significance between vehicle control and treated groups. Significance is set at P<0.05.
Test substances and vehicles were each administered topically (TOP) at 30 minutes before and 15 minutes after challenge with the second application of oxazolone.
The test system used was a 7-day oxazolone-induced ear swelling assay. […] Ear swelling was measured with a Dyer model micrometer gauge at 24 hours after oxazolone challenge as an index of inflammation. Ear edema was calculated by subtracting the thickness of the left ear (normal control) from the right ear (treated ear) (Table 9). […] Percent inhibition was calculated according to the formula: (Ic−It)/Ic×100, where Ic and It refer to increase of ear thickness (mm) in control and treated mice, respectively. […]
BALB/c mice are sensitized with oxazolone exposure to the abdomen and are subsequently challenged (7 days post-sensitization) with oxazolone application to the right ear. […] The effect of anti-inflammatory test articles is then assessed by measuring the amount of ear swelling, which is reported as a percentage in comparison to the study vehicle. […]

SMILES	IL-17 secretion (Th17/IL-17 pathway)	Ear Swelling % Inhibition (vs. Vehicle A) ([1]; Example 2 study, TOP x 2 (30 min before, 15 min after oxazolone challenge), 24 hours, vs acetone/ethanol 1/1)	% inhibition of oxazolone-induced ear swelling vs ethanol/acetone ([1]; Example 4 study, TOP x 2, 24 hours) [%]	Net Swelling on Right Ear (Mean ± SEM, ×0.01 mm) ([1]; Example 4 study, TOP x 2, 24 hours after oxazolone challenge) [×0.01 mm]
C=C1/C(=C\C=C2/CCC[C@]3(C)[C@@H]([C@H](C)/C=C/[C@@H](O)C4CC4)CC[C@@H]23)C[C@@H](O)C[C@@H]1O [calcipotriol]	partial inhibition of IL-17 secretion	–	–	–
C[C@@H]1C[C@H]2[C@@H]3CCC4=CC(=O)C=C[C@]4(C)[C@@]3(F)[C@@H](O)C[C@]2(C)[C@@]1(O)C(=O)CO [Dexamethasone]	–	85* %	86	3.2 ± 0.4
